Results as given in patent publication US8288510B2, “Isolated peptides having phospholipase inhibitory activity” (priority 2008, dated 2012).
Substitutions are numbered along the chain they refer to.

Assays:
FOL wt = experiment: Enzyme assay p-NP butyrate, inhibitory effect of peptides on FoL wildtype (Example 8); format: biochemical, Fusarium oxysporum; conditions: fitted against inhibitor/lipase ratio (peptide excess 0.5 to 1000), pH 7
Experimental: (§1) Enzyme assay: The substrate used for these experiments was para-nitropenyl (p-NP) butyrate (N9876 Sigma Aldrich). A substrate stock solution was prepared by adding 18 μL of p-NP butyrate to 1 ml of 2-propanol giving a 100 mM stock solution. The working solution was prepared by diluting 500 μL stock solution in final volume of 50 mL 500 mM phosphate pH 7, 0.4% triton X-100. […] An enzyme substrate blank containing 60 μL was included. After pre-incubation in minimum 15 minutes, 100 μL of substrate was added and the reaction was followed in microtiter plate spectrophotometer (SPECTRAmax PLUS 384 from Molecular Devices) after an initial shaking (5 sec.) at room temperature. Colour development over time was monitored at A405 (every 20 sec. for 30 minutes), measuring p-nitrophenol, one of the degradation products of p-NP butyrate, liberated by the hydrolysis.
(§2) Initial reaction rates (determined as the linear initial slope of A405 plotted against time) were plotted against the logarithm to the inhibitor/lipase ratio. From the following model IC50 values were determined:
(§3) v0 is the initial reaction rate, vmax is the maximum rate, vmin is the minimum reaction rate and IC50 is the half maximal inhibitory concentration. GraphPad Prism (v.5.00, Mar. 12, 2007) from GraphPad Software, Inc. was used for regression.

FOL I207E variant = experiment: Enzyme assay p-NP butyrate, inhibitory effect of peptides on FoL variant I207E (Example 8); format: biochemical, Fusarium oxysporum; conditions: for IC50 value (half maximal inhibitory concentration): FOL I207E variant, fitted against inhibitor/lipase ratio (peptide excess 0.5 to 1000), p-NP butyrate, pH 7
Experimental: as §1, §2, §3

[1] = molecular target: T1, TLL variant N248G/Q249G/P250T/N251L/I252G/P253L (Thermomyces lanuginosus, UniProt O59952, I274G/N270G/N273L/P272T/P275L/Q271G); experiment: Enzyme assay p-NP butyrate, inhibitory effect of peptides on TLL variant (Example 9); format: biochemical; conditions: peptide/lipase ratios 5 to 5000 (P11, P13), 6 to 6000 (P12)
T1 sequence (O59952 23-291 N270G/Q271G/P272T/N273L/I274G/P275L): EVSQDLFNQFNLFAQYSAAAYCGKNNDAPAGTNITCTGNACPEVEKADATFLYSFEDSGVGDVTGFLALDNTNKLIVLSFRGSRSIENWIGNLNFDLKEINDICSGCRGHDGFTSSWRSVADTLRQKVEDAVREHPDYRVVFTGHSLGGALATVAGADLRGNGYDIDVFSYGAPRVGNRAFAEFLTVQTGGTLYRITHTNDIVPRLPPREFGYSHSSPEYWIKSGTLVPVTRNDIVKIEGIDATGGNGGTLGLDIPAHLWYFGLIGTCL
Experimental: as §1, §2, §3
Enzyme assay: As described above.

[2] = Lecithin plate assay, clearing zone (phospholipase activity); format: biochemical; conditions: for Clearing zone diameter: after 20 hours incubation

Sequence of FOL I207E variant (as listed by the source, stated change not applied): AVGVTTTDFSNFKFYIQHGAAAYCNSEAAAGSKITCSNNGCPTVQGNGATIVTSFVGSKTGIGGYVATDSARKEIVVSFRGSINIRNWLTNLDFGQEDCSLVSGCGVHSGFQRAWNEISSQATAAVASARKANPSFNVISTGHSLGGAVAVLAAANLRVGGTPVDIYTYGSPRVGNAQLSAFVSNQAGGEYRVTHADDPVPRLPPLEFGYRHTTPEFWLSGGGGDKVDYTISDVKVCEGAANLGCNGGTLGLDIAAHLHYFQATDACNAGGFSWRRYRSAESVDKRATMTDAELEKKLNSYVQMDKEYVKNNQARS

Molecule: ATMTEAELEKKLNSYVQMDKEYVKNNQARS [Peptide P1]
- IC50 value (half maximal inhibitory concentration) (FOL wt): Very low

Molecule: ATMTDAELEKKLNSYVQMDKEYVKNNQARS [Peptide P0]
- binding of the peptide by FoL variant I207E compared with wildtype enzyme (% inhibition curves, FIG. 8 C) (FOL I207E variant; 0% inhibition assumed for lowest peptide concentration): better at binding the peptide than the wildtype enzyme

Molecule: ATMTDAEVEKKLNSYVQMDKEYVKNNQARS [Peptide P11]
- IC50 value (half maximal inhibitory concentration) [1]: Very low

Molecule: ATMTDAELEKKLNSYVQMDKEEVKNNQARS [Peptide P4]
- IC50 value (half maximal inhibitory concentration) (FOL wt): No
- IC50 value (half maximal inhibitory concentration) (FOL I207E variant): Very low

Molecule: ATMTDAELTKKLNSYVQMDKEYVKNNQARS [Peptide P2]
- IC50 value (half maximal inhibitory concentration) (FOL wt): Very low

Molecule: ATMTDAELEKKLNSYVQMAKEYVKNNQARS [P1′]
- IC50 value (half maximal inhibitory concentration) (FOL wt): No
- IC50 value (half maximal inhibitory concentration) (FOL I207E variant): No

B1: FoL: Fusarium oxysporum lipase, SEQ ID No. 1 (protein, listed as Fusarium oxysporum)
chain: AVGVTTTDFSNFKFYIQHGAAAYCNSEAAAGSKITCSNNGCPTVQGNGATIVTSFVGSKTGIGGYVATDSARKEIVVSFRGSINIRNWLTNLDFGQEDCSLVSGCGVHSGFQRAWNEISSQATAAVASARKANPSFNVISTGHSLGGAVAVLAAANLRVGGTPVDIYTYGSPRVGNAQLSAFVSNQAGGEYRVTHADDPVPRLPPLIFGYRHTTPEFWLSGGGGDKVDYTISDVKVCEGAANLGCNGGTLGLDIAAHLHYFQATDACNAGGFSWRRYRSAESVDKRATMTDAELEKKLNSYVQMDKEYVKNNQARS
- Clearing zone diameter ([2]; ODA280 0.2): 7 mm
- Clearing zone diameter ([2]; ODA280 0.5): 10 mm

B2: TLL: Thermomyces lanuginosus lipase, SEQ ID No. 9 (protein, listed as Thermomyces lanuginosus)
chain: T1 sequence (O59952 23-291 N270G/Q271G/P272T/N273L/I274G/P275L) with G248N, G249Q, T250P, L251N, G252I, L253P
- Clearing zone diameter ([2]; ODA280 0.2): 0 mm
- Clearing zone diameter ([2]; ODA280 0.5): 0 mm
- Clearing zone (in words) ([2]; after 20 hours of incubation, ODA280 0.2 and 0.5): did not show a clearing zone
